SMILES strings stand for the structures.

For experiment [1], the species on record is Homo sapiens. The experiment is described as follows: Compound was tested for inhibition of phorbol-induced superoxide generation in human neutrophils after 1 hr pre-incubation at 4 degree C using neutrophil assay. The class given is functional.
Experiment [2] is filed under the species Homo sapiens. Kind of experiment: Compound was tested for inhibition of phorbol-induced superoxide generation in human neutrophils using neutrophil assay; value ranges from 0.8-2.1. The experiment is classed as functional.
The species named for experiment [3] is Homo sapiens. The experiment is described as follows: cells. The experiment is classed as functional, organism-based.
Experiment [4] deals with T1, Protein kinase C beta type (Homo sapiens, UniProt P05771). Kind of experiment: Inhibition of Protein kinase C beta 2 expressed in Sf-9 cells.
For experiment [5], the target named is T2, Protein kinase C delta type (Homo sapiens, UniProt Q05655). The experiment is described as follows: Inhibition of Protein kinase C delta expressed in Sf-9 cells.
In experiment [6] the target is T3, Protein kinase C alpha type (Homo sapiens, UniProt P17252). The experiment is described as follows: Inhibition of Protein kinase C alpha expressed in Sf-9 cells.
Experiment [7] addresses T4, Protein kinase C epsilon type (Homo sapiens, UniProt Q02156).
T4 sequence (Q02156 whole entry): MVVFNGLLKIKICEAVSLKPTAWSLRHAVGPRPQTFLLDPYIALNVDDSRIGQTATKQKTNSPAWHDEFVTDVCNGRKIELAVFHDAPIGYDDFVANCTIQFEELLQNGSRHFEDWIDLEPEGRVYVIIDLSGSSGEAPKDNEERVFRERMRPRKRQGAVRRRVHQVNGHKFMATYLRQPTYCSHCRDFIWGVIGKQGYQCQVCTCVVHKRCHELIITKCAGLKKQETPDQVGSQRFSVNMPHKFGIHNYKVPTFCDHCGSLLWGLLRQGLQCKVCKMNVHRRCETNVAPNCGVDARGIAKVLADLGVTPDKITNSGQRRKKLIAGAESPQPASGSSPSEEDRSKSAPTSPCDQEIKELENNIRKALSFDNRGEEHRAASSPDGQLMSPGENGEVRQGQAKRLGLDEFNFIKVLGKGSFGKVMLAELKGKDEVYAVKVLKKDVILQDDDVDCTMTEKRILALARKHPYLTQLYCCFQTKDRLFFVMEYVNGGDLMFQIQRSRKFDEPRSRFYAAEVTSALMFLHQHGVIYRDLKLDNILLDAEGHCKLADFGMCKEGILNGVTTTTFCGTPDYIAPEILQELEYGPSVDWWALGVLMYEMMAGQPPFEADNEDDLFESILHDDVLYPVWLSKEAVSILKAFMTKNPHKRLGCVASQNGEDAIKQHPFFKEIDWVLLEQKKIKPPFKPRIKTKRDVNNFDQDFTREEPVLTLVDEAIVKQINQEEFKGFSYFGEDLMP
Kind of experiment: Inhibition of protein kinase C epsilon expressed in Sf-9 cells.

Experiment [8] concerns the target T5, Protein kinase C eta type (Homo sapiens, UniProt P24723). The experiment is described as follows: Inhibition of Protein kinase C eta expressed in Sf-9 cells.
The species named for experiment [9] is Homo sapiens. The experiment is described as follows: Compound was tested for inhibition of phorbol-induced superoxide generation in human neutrophils using neutrophil assay. The experiment is classed as functional.
The species entered for experiment [10] is Homo sapiens. Kind of experiment: Compound was tested for inhibition of phorbol-induced superoxide generation in human neutrophils using neutrophil assay; value ranges from […]-[…]. The experiment is classed as functional.
The species named for experiment [11] is Homo sapiens. Kind of experiment: Compound was tested for inhibition of phorbol-induced superoxide generation in human neutrophils after 1 hr pre-incubation at 4 degree C using neutrophil assay; value ranges from 0.33-0.85. The experiment is classed as functional.
Experiment [12] has as its target T1, Protein kinase C beta type. The experiment is described as follows: Inhibition of Protein kinase C beta 2 expressed in Sf-9 cells (inactive).
The target of experiment [13] is T3, Protein kinase C alpha type. The experiment is described as follows: Inhibition of Protein kinase C alpha expressed in Sf-9 cells (inactive).
For experiment [14], the target named is T4, Protein kinase C epsilon type. The experiment is described as follows: Inhibition of protein kinase C epsilon expressed in Sf-9 cells (inactive).
The target in experiment [15] is T2, Protein kinase C delta type. Kind of experiment: Inhibition of Protein kinase C delta expressed in Sf-9 cells (inactive).
Experiment [16] addresses T5, Protein kinase C eta type. The experiment is described as follows: Inhibition of Protein kinase C eta expressed in Sf-9 cells (inactive).
Experiment [17] is filed under the species Homo sapiens. Kind of experiment: Compound was tested for inhibition of phorbol-induced superoxide generation in human neutrophils after 1 hr pre-incubation at 4 degree C using neutrophil assay; value ranges from 2.8-10. The class given is functional.

T2 sequence (Q05655 whole entry): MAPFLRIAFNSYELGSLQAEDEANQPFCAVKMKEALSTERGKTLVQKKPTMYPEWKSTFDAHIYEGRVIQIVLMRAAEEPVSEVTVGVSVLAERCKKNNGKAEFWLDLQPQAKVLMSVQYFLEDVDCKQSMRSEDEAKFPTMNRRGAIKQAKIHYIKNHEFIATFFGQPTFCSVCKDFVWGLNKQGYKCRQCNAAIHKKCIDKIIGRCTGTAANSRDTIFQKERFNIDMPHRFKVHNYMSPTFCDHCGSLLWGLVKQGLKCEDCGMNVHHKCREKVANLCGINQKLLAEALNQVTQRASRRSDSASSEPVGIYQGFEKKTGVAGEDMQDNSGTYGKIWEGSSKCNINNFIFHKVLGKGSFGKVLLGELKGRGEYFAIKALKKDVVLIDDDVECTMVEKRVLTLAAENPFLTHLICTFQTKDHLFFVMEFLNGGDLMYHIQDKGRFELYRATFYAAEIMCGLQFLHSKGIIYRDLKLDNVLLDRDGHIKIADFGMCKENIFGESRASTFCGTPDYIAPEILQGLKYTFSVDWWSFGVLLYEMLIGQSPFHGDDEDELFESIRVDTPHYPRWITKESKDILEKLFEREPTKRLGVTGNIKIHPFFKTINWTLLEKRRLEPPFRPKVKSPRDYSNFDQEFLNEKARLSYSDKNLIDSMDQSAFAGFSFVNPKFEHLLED
T5 sequence (P24723 whole entry): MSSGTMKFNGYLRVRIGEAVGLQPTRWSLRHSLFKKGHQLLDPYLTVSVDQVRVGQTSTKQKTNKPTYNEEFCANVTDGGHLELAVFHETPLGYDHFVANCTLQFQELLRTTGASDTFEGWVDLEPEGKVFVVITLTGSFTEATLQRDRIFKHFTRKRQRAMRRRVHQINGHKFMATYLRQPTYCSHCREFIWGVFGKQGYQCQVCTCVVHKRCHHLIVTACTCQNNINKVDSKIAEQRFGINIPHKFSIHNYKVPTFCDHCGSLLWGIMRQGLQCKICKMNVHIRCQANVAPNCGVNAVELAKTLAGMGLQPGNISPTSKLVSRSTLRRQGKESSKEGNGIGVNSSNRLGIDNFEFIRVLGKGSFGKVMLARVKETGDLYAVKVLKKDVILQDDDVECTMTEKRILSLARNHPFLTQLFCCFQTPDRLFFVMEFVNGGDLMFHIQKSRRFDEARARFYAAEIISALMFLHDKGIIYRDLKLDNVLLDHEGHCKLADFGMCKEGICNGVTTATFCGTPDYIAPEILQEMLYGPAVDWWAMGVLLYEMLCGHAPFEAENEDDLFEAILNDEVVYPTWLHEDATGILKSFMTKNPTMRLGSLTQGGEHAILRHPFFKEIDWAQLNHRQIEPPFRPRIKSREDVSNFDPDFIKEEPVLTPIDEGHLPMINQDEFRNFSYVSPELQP
T1 sequence (P05771 whole entry): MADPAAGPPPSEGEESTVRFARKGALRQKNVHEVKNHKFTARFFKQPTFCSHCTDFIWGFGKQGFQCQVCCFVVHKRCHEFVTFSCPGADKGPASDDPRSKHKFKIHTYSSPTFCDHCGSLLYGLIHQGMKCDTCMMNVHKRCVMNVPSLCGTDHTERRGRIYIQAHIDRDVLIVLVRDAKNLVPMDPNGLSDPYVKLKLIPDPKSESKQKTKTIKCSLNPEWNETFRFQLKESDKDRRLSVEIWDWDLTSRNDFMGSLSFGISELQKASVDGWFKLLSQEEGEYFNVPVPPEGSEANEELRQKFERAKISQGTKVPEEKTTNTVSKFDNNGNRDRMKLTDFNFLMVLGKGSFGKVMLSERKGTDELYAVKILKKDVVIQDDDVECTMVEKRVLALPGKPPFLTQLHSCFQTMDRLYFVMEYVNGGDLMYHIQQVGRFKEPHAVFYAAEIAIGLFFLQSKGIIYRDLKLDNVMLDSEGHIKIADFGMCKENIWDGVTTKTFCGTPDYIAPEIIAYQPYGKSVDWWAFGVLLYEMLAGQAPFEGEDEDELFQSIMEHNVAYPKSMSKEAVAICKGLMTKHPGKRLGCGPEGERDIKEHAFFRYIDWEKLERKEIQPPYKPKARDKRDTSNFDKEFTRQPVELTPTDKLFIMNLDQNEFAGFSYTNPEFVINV

The term IC50 denotes the midpoint of a concentration-inhibition curve. Higher therefore signals weaker potency. Turning to `O=C(N[C@@H]1CCC[C@H]1OC(=O)c1cc(O)c(C(=O)c2c(O)cccc2C(=O)O)c(O)c1)c1ccc(O)cc1`, in the experiment filed under Homo sapiens [1], the IC50 was over 10000 nM.
For the compound `COC(=O)c1cccc(O)c1C(=O)c1c(O)cc(C(=O)O[C@@H]2CCC[C@H]2NC(=O)c2ccc(O)cc2)cc1O` (racemic), the IC50 was over 800 nM in the experiment filed under Homo sapiens [2]; over 1720 nM in the experiment listed under Homo sapiens [3]; 330 nM in [4]; 30 nM in experiment [5]; 320 nM in [6]; 260 nM in experiment [7]. In experiment [8], this compound gave an IC50 of 30 nM.
Regarding `CC(C)COC(=O)c1cccc(O)c1C(=O)c1c(O)cc(C(=O)O[C@@H]2CNC[C@H]2NC(=O)c2ccc(O)cc2)cc1O`, the IC50 is over 10000 nM in the experiment listed under Homo sapiens [9] (Homo sapiens); 20000 nM in experiment [4]; 200 nM in [5]; 19000 nM in experiment [6]; 3200 nM in [7]; 50 nM in experiment [8].
Consider `CCOC(=O)c1cccc(O)c1C(=O)c1c(O)cc(C(=O)O[C@@H]2CCC[C@H]2NC(=O)c2ccc(O)cc2)cc1O`, for which the half-inhibitory concentration (IC50) in the experiment listed under Homo sapiens [9] (Homo sapiens) is over 2600 nM; in experiment [4], 1600 nM; in [5], 67 nM; in experiment [6], 920 nM; in [7], 660 nM; in experiment [8], 52 nM.
Turning to `CC(C)OC(=O)c1cccc(O)c1C(=O)c1c(O)cc(C(=O)O[C@@H]2CCC[C@H]2NC(=O)c2ccc(O)cc2)cc1O`, the IC50 was over 10000 nM in the experiment listed under Homo sapiens [9] (Homo sapiens); 440 nM in experiment [4]; 50 nM in [5]; 4700 nM in [6]; 13000 nM in experiment [7]; 260 nM in [8].
As to `CC(C)(C)C(=O)OCOC(=O)c1cccc(O)c1C(=O)c1c(O)cc(C(=O)O[C@@H]2CCC[C@H]2NC(=O)c2ccc(O)cc2)cc1O`, the IC50 in the experiment listed under Homo sapiens [10] was over 3680 nM; in the experiment listed under Homo sapiens [11] it was over 330 nM; in experiment [12], “Not Active”; in experiment [13], “Not Active”; in experiment [14], “Not Active”; in experiment [15] it was “Not Active”. The IC50 result in [16] was “Not Active”.
In the case of `COC(=O)c1cccc(O)c1C(=O)c1c(O)cc(C(=O)O[C@@H]2CCC[C@H]2NC(=O)c2ccc(O)cc2)cc1O` (stereo in doubt; 8 (+)), the IC50 in the experiment filed under Homo sapiens [9] is over 10000 nM; in experiment [4], 1800 nM; in [5], 250 nM; in experiment [6], 4200 nM; in [7] it was 20000 nM; in experiment [8], 400 nM.
Consider `CC(=O)OCOC(=O)c1cccc(O)c1C(=O)c1c(O)cc(C(=O)O[C@@H]2CNC[C@H]2NC(=O)c2ccc(O)cc2)cc1O`, for which the IC50 in the experiment filed under Homo sapiens [1] is over 10000 nM; in experiment [4], 20 nM; in experiment [5], 24 nM; in experiment [6] it was 130 nM; in experiment [7], 130 nM; in experiment [8], 14 nM.
For the compound `COC(=O)c1cccc(O)c1C(=O)c1c(O)cc(C(=O)O[C@@H]2CNC[C@H]2NC(=O)c2ccc(O)cc2)cc1O`, the IC50 in the experiment listed under Homo sapiens [9] (Homo sapiens) was over 50000 nM; in [4], 290 nM; in experiment [5], 18 nM; in experiment [6], 250 nM; in [7], 170 nM; in [8], 16 nM.
`O=C(N[C@@H]1CNC[C@H]1OC(=O)c1cc(O)c(C(=O)c2c(O)cccc2C(=O)O)c(O)c1)c1ccc(O)cc1` showed an IC50 in the experiment listed under Homo sapiens [9] (Homo sapiens) of over 50000 nM.
Take `CC(C)(C)C(=O)OCOC(=O)c1cccc(O)c1C(=O)c1c(O)cc(C(=O)O[C@@H]2CNC[C@H]2NC(=O)c2ccc(O)cc2)cc1O`: the IC50 in the experiment listed under Homo sapiens [17] is over 2800 nM; in experiment [4], 20 nM; in [5], 10 nM; in [6], 160 nM; in experiment [7], 34 nM; in experiment [8] it was 4 nM.
For the compound `COC(=O)c1cccc(O)c1C(=O)c1c(O)cc(C(=O)O[C@@H]2CCC[C@H]2NC(=O)c2ccc(O)cc2)cc1O` (stereo in doubt; 8 (-)), the IC50 was over 1500 nM in the experiment listed under Homo sapiens [9]; 40 nM in [4]; 5 nM in experiment [5]; 210 nM in experiment [6]; 300 nM in experiment [7]; 4 nM in experiment [8].
Consider `CCCCOC(=O)c1cccc(O)c1C(=O)c1c(O)cc(C(=O)O[C@@H]2CNC[C@H]2NC(=O)c2ccc(O)cc2)cc1O`, for which the IC50 in the experiment listed under Homo sapiens [9] (Homo sapiens) was over 10000 nM; in [4], 2200 nM; in experiment [5], 80 nM; in experiment [6] it was 3100 nM; in [7], 3700 nM; in experiment [8], 40 nM.
For the compound `CCOC(=O)c1cccc(O)c1C(=O)c1c(O)cc(C(=O)O[C@@H]2CNC[C@H]2NC(=O)c2ccc(O)cc2)cc1O`, the IC50 in the experiment listed under Homo sapiens [9] (Homo sapiens) is over 10000 nM; in [4], 1000 nM; in experiment [5], 50 nM; in experiment [6] it was 2200 nM; in experiment [7], 1300 nM; in experiment [8] it was 20 nM.
As for `O=C(N[C@@H]1CNC[C@H]1OC(=O)c1cc(O)c(C(=O)c2c(O)cccc2C(=O)OCC2CCCCC2)c(O)c1)c1ccc(O)cc1`, the IC50 in the experiment filed under Homo sapiens [9] (Homo sapiens) was over 10000 nM; in experiment [4], 22000 nM; in experiment [5] it was 310 nM; in experiment [6], 17000 nM; in experiment [7], 25000 nM; in experiment [8], 50 nM.
In the experiment listed under Homo sapiens [9] (Homo sapiens), `O=C(N[C@@H]1CNCCC[C@H]1OC(=O)c1cc(O)c(C(=O)c2c(O)cccc2C(=O)O)c(O)c1)c1ccc(O)cc1` [BALANOL] showed an IC50 of over 10000 nM.

Source of the values: ChEMBL document CHEMBL1128824 (Bioorg Med Chem Lett, 1995).
